Assay results published in patent US10627412B2, “Periodontal-disease-specific peptide, and treatment and diagnosis of periodontal disease using same” (KAGOSHIMA UNIVERSITY, priority 2010, dated 2020).

Tests used:
RANKL in lymphocytes = experiment: RANKL expression in stimulated lymphocytes, Western blot with anti RANKL antibody; format: cell-based, human
Description: Blood samples were collected from progressive (untreated) periodontitis patients, periodontitis patients during treatment and periodontitis patients after treatment to obtain lymphocytes, stimulated with full-length human Keratin 6 (K6; 2 or 4 μg/ml) or peptide 1 (K6F; 60 or 30 μg/ml), expression of RANKL in lymphocytes was examined by Western blot analysis using anti RANKL antibody. […] Fluorescent staining was performed to examine induction of lymphoblast formation by the stimulation with full-length human Keratin 6 or peptide 1. As a result, it was correlated well with the expression of RANKL mRNA (FIG. 8C).

[1] = system: RANKL mRNA in lymphocytes; experiment: RT-PCR of RANKL mRNA in lymphocytes of periodontitis patients; format: cell-based, human; conditions: stimulation of lymphocytes of periodontitis patients
[2] = system: peripheral blood mononuclear leukocytes; experiment: FACS analysis of RANKL and CD3 in peripheral blood mononuclear leukocytes of injected rats; format: cell-based, rat; conditions: in vitro stimulation of cells of rats injected with FL6 or K6F
Description: (§1) PBS, full-length human Keratin 6 (FLK6) or peptide 1 (K6F) was administered by intragingival injection to the lower left jaw of rats. […] The lymphocytes obtained from these rats were stimulated with FLK6 or K6F and cultured. […] In addition, peripheral blood mononuclear leukocytes were obtained from these rats, stimulated with K6F or scramble peptide (Sc), and expression of RANKL and CD3 were examined by FACS analysis. […] Moreover, alveolar bone destruction in these rats was examined.

[3] = system: Peripheral blood monocytes derived from severe periodontitis patients; experiment: Immunostaining of peripheral blood monocytes with anti-RANKL and anti-CD3 antibody; format: cell-based, human; conditions: stimulation of cells from severe periodontitis patients
From the text: Peripheral blood monocytes derived from severe periodontitis patients were stimulated with full-length human Keratin 6 (FL) or peptide 1 (K6F), and immunostained with anti-RANKL antibody and anti-CD3 antibody.

[4] = system: T cells obtained from peripheral blood of the periodontal disease patients; experiment: Differentiation of stimulated T cells into polynuclear giant cells, tissue staining; format: cell-based, human; conditions: stimulation
From the text: T cells obtained from peripheral blood of the periodontal disease patients and healthy subject were stimulated with full-length human Keratin 6 (FL) or peptide 1 (K6F), and differentiation into polynuclear giant cells was observed by tissue staining.

rats = experiment: Intragingival injection to the lower left jaw of rats; format: in vivo, rat; conditions: for tumentia of lower jaw lymph node (Lt): injected left side, intragingival injection; for alveolar bone destruction: lower jaw of injected rats
Description: as §1

[5] = system: p38 MAPK, IκB-α, p65 NFκB in gingiva fibroblast (GF); experiment: p38 MAPK, IκB-α and p65 NFκB signalling in stimulated gingiva fibroblast; format: cell-based; conditions: stimulation 15 min-2 hr
Description: Gingiva fibroblasts were stimulated with peptide 1 (K6F), recombinant Keratin 6 (RK6, Rec-K6) or scramble peptide (Sc) for 2-24 hr, and the expression levels of MMP-2, MMP-3, MCP-1, IL-6, IL-8 were measured by Western blot analysis. […] Then, gingiva fibroblast (GF) and gingival epithelial cell (GEC) were stimulated with peptide 1 (K6F) or scramble peptide (Sc), respectively, for 15 min-2 hr, and phosphorylation of p38 in GF, […] serine/threonine kinase in GEC were examined.

[6] = system: ERK and Akt in gingival epithelial cell (GEC); experiment: Activation of serine/threonine kinases in stimulated gingival epithelial cell; format: cell-based; conditions: stimulation 15 min-2 hr
Description: (§2) Gingiva fibroblasts were stimulated with peptide 1 (K6F), recombinant Keratin 6 (RK6, Rec-K6) or scramble peptide (Sc) for 2-24 hr, and the expression levels of MMP-2, MMP-3, MCP-1, IL-6, IL-8 were measured by Western blot analysis. […] Then, gingiva fibroblast (GF) and gingival epithelial cell (GEC) were stimulated with peptide 1 (K6F) or scramble peptide (Sc), respectively, for 15 min-2 hr, and phosphorylation of p38 in GF, as well as expression of IκB-α and phosphorylation of p65 NFκB and activation of representative serine/threonine kinase in GEC were examined.

[7] = system: lymphocytes obtained from these rats; experiment: Lymphoblast formation in cultured lymphocytes of injected rats; format: cell-based, rat
Description: as §1

[8] = system: T cells obtained from peripheral blood of the periodontal disease patients; experiment: Pit formation assay on dentin section; format: cell-based, human; conditions: stimulation
[9] = system: MMP-2, MMP-3, MCP-1, IL-6, IL-8 in gingiva fibroblasts; experiment: Cytokine and chemokine expression in stimulated gingiva fibroblasts, Western blot; format: cell-based; conditions: stimulation 2-24 hr
Description: as §2

[10] = system: Lymphocytes obtained from periodontitis patients and healthy subjects (T cell proliferation); experiment: Drug-induced lymphocyte stimulation test (DLST); format: cell-based, human; conditions: for T cell proliferation induction potency in DLST: periodontitis patients as compared to healthy subjects
From the text: Lymphocytes obtained from periodontitis patients and healthy subjects were subjected to a drug-induced lymphocyte stimulation test (DLST) using full-length human Keratin 6 and peptide 1 (fragment thereof) (periodontitis patients: N=22, healthy subjects: N=5).

gingiva fibroblast (GF) = experiment: Binding of FITC-labeled peptide to various cells, confocal microscope; conditions: gingiva fibroblast compared to other cells
From the text: Various cells were stimulated with FITC-labeled peptide 1 (K6F, P-1), observed under a confocal microscope, and the binding level to K6F was shown by percentage higher than that of the control cell (FIG. 14).

[11] = lymphocytes of healthy subject (Non-PD) and periodontitis patients after treatment (Maintenance Phase)
[12] = lymphocytes of untreated periodontitis patients and patients during treatment, K6 2 or 4 μg/ml, K6F 60 or 30 μg/ml
[13] = in vitro stimulation of lymphocytes of injected rats
[14] = lymphocytes of rats injected with the substance

Molecule | expression of RANKL in lymphocytes (RANKL in lymphocytes; [11]) | expression of RANKL in lymphocytes (RANKL in lymphocytes; [12]) | expression of RANKL mRNA [1] | expression of RANKL and CD3 [2] | CD positive cells (T cells) that express RANKL [3] | differentiation into polynuclear giant cells [4] | tumentia of lower jaw lymph node (Lt) (rats) | alveolar bone destruction (rats) | phosphorylation (activation) of p38 MAPK ([5]; GF) | degradation of IκB and activation of p65 NFκB [5] | activation of representative serine/threonine kinase [6] | Lymphoblast formation [7, 13] | Lymphoblast formation [7, 14] | bone resorption pit formation [8] | expression levels of MMP-2, MMP-3, MCP-1, IL-6, IL-8 [9] | DLST positive samples (T cell proliferation induced) / samples tested ([10]; Healthy subject, N=5) | DLST positive samples (T cell proliferation induced) / samples tested ([10]; Periodontitis patients, N=22) | T cell proliferation induction potency in DLST [10] | binding level to cells, percentage higher than that of the control cell (gingiva fibroblast (GF))
YEELQITAGRHGDDLRNTK (listed as Homo sapiens) [peptide 1] | not expressed | increased expression of RANKL | tended to increase | enhanced expression of RANKL and CD3 | remarkably increased | remarkable differentiation into polynuclear giant cells | tumentia of lower jaw lymph node | alveolar bone destruction was observed | induced activation of p38 MAPK | did not induce degradation of IκB and activation of p65 NFκB | induced activation of ERK and Akt | further enhanced lymphoblast formation | Lymphoblast formation was observed | formation of a marked bone resorption pit | remarkably increased expression | 0/5 | 3/22 | remarkable T cell proliferation induction potency | far higher binding level
Full-length human Keratin 6: full-length human Keratin 6 protein, parental protein of peptide 1 (protein, UniProt P02538 1-564, looked up, full-length) MASTSTTIRSHSSSRRGFSANSARLPGVSRSGFSSVSVSRSRGSGGLGGACGGAGFGSRSLYGLGGSKRISIGGGSCAISGGYGSRAGGSYGFGGAGSGFGFGGGAGIGFGLGGGAGLAGGFGGPGFPVCPPGGIQEVTVNQSLLTPLNLQIDPTIQRVRAEEREQIKTLNNKFASFIDKVRFLEQQNKVLETKWTLLQEQGTKTVRQNLEPLFEQYINNLRRQLDSIVGERGRLDSELRGMQDLVEDFKNKYEDEINKRTAAENEFVTLKKDVDAAYMNKVELQAKADTLTDEINFLRALYDAELSQMQTHISDTSVVLSMDNNRNLDLDSIIAEVKAQYEEIAQRSRAEAESWYQTKYEELQVTAGRHGDDLRNTKQEIAEINRMIQRLRSEIDHVKKQCANLQAAIADAEQRGEMALKDAKNKLEGLEDALQKAKQDLARLLKEYQELMNVKLALDVEIATYRKLLEGEECRLNGEGVGQVNISVVQSTVSSGYGGASGVGSGLGLGGGSSYSYGSGLGVGGGFSSSSGRAIGGGLSSVGGGSSTIKYTTTSSSSRKSYKH | not expressed | increased expression of RANKL | tended to increase | – | remarkably increased | remarkable differentiation into polynuclear giant cells | tumentia of lower jaw lymph node | alveolar bone destruction was observed | – | – | – | further enhanced lymphoblast formation | Lymphoblast formation was observed | formation of a marked bone resorption pit | – | 2/5 | 13/22 | remarkable T cell proliferation induction potency | –
